Patent US9340543B2, “Helquat derivatives, preparation thereof, and use thereof as medicaments” (USTAV ORGANICKE CHEMIE A BIOCHEMIE AKADEMIE VED CR, V.V.I., priority 2013, dated 2016)
Structures can show the parent of a compound that is named as a salt. Blank lines part the entries; values can stand above or below the molecule they belong to.

Experiments:
CCRF-CEM = experiment: CellTiter-Glo luminescent cell viability assay (ATP quantification), CCRF-CEM; assay type: cell-based; conditions: acute lymphoblastic leukemia cells, 72 h treatment, viable cells by ATP luminescence
Experimental: (§1) Influence of the test compounds on viability (proliferation) of cell lines used was investigated in concentration range 0-100 μmol·l^−1.
Suspension cell line CCRF-CEM is a permanent in vitro culture of acute lymphoblastic leukemia. CCRF-CEM cell line was cultivated in RPMI 1640 medium (Sigma-Aldrich, cat. no. R8758) with addition of 2 mmol·l^−1 glutamine (Invitrogen, cat. no. 35050-038), 10% fetal bovine serum (FBS, Sigma-Aldrich, cat. no. F9665), 100 IU/ml peniciline, 100 μg/ml streptomycine (Sigma-Aldrich, cat. no. P0781). Passaging was performed 2-3× a week. Population doubling time of CCRF-CEM cell line was 20 h under the cultivation conditions used.
(§2) In order to test the sensitivity of the cell lines towards the studied helquats, cytotoxity test for cell viability assessment based on ATP quantification in cell lysates was used (CellTiter-Glo® Luminescent Cell Viability Assay, Promega, cat. no. G7571). In this test, ATP in cell lysates is detected using luciferase reaction. Luminescence intensity correlates with the ATP level and thus with quantity of metabolically active (viable) cells. IC50 value serves as the output, that is the concentration of the test compound which leads to 50% reduction in number of viable cells as compared to control, untreated population. To this end, IC50 value reflects efficiency of the test compound with regard to the given cell line.
(§3) Cells in the exponential growth phase were seeded into a 96-well microtiter plate were plated at 3000 cells per well. Each well contained 90 μl of cell suspension. The next day, 10 μl of 10× concentrated test compound solutions were added. The effect of helquats was investigated in concentration range 1 to 100 μmol·l^−1 (e.g. 1; 2.5; 5; 7.5; 10; 15; 25; 50 and 100 μmol·l^−1). Apart from the section containing the concentration series of the test compound, each well contained 2 control columns, the first with pure medium (so called blank) and the second with cells in medium without the test compounds (control). Into wells containing controls and blanks, volume of solvent (water) equal to the volume of added compound solutions was added. After 72 h of incubation with the test compounds viability was determined according to the manufacturer's instructions. In short: microtiter well plate was left 30 min to reach the room temperature after it has been removed from the incubator. Then, into each well, 100 μl of the prepared detection agent was added. Next, the well plate was shaken for 2 min to complete the full lysis. Next, after the well had been left in the dark for 15 min, the luminescence was measured in each well using luminometer (Tecan Genios, Austria).
(§4) IC50 value represents concentration of the test compound, which leads to 50% reduction of viable cells (inhibition of cell growth) after 72 h of the treatment. Each helquat concentration was tested in triplicates in a IC50 quantification and at least 3 independent IC50 quantification experiments were performed. IC50 values over 100 μmol·l^−1 were obtained by extrapolation of data measured in concentration range 0-100 μmol·l^−1 for the given helquat.

MOLT-4 = experiment: CellTiter-Glo luminescent cell viability assay (ATP quantification), MOLT-4; assay type: cell-based; conditions: acute lymfoblastic leukemia cells, 72 h treatment, viable cells by ATP luminescence
Experimental: as §1
(§5) Suspension cell line MOLT-4 is a permanent in vitro culture of acute lymfoblastic leukemia. Linie MOLT-4 cell line was cultivated in RPMI 1640 medium (Sigma-Aldrich, see above) with addition of 2 mmol glutamine (Invitrogen, see above), 10% fetal bovine serum (FBS, Sigma-Aldrich, see above), 100 IU/ml peniciline, 100 μg/ml streptomycine (Sigma-Aldrich, see above). Passaging was performed 2-3× a week. Population doubling time of MOLT-4 cell line was 25 h under the cultivation conditions used.
as §2, §3, §4

HeLa = experiment: CellTiter-Glo luminescent cell viability assay (ATP quantification), HeLa; assay type: cell-based; conditions: cervical cancer cells, 72 h treatment, viable cells by ATP luminescence
Experimental: as §1
Adherent cell line HeLa is a permanent in vitro culture derived from cervical cancer. HeLa cell line was cultivated in RPMI 1640 medium (Dutch modification) (Sigma-Aldrich, cat. no. R7638) with addition of 2 mmol·l^−1 glutamine (Invitrogen, see above), 10% fetal bovine serum (FBS, Sigma-Aldrich, see above), 100 IU/ml peniciline, 100 μg/ml streptomycine (Sigma-Aldrich, see above). Passaging was performed twice a week. After washing of cells with sterile PBS the cells were released by 0.25% trypsin/EDTA (Sigma-Aldrich, cat. no. T4049) at 37° C. for 2 minutes. The trypsin was inactivated by addition of 2 volumes of complete medium, cells were then centrifuged (250×g, 5 min), the cell pellet was resuspended, and transferred in the amount needed into a new cultivation bottle with fresh medium. Population doubling time of […] cell line was 25 h under the cultivation conditions used.
as §2, §3, §4

HL-60 = experiment: CellTiter-Glo luminescent cell viability assay (ATP quantification), HL-60; assay type: cell-based; conditions: acute promyelocytic leukemia cells, 72 h treatment, viable cells by ATP luminescence
Experimental: as §1
as §5, with “HL-60” for “MOLT-4”, “promyelocytic” for “lymfoblastic”, “HL-60” for “Linie MOLT-4”, “mmol·l^−1” for “mmol”, “23” for “25”
as §2, §3, §4

LoVo = experiment: CellTiter-Glo luminescent cell viability assay (ATP quantification), LoVo; assay type: cell-based; conditions: Homo sapiens, LoVo; colorectal carcinoma cells, 72 h treatment, viable cells by ATP luminescence; class symbols
Experimental: as §1
(§6) Adherent cell line LoVo is a permanent in vitro culture derived from tissue of a patient with colorectal carcinoma. LoVo cell line was cultivated in DMEM medium (Sigma-Aldrich, cat. no. D8437) with addition of 2 mmol·l^−1 glutamine (Invitrogen, see above), 10% fetal bovine serum (FBS, Sigma-Aldrich, see above), 100 IU/ml peniciline, 100 μg/ml streptomycine (Sigma-Aldrich, see above). Passaging was performed twice a week. After washing of cells with sterile PBS, the cells were released by 0.25% trypsin/EDTA (Sigma-Aldrich, see above) at 37° C. for 2 minutes. The trypsin was inactivated by addition of 2 volumes of complete medium, cells were then centrifuged (250×g, 5 min), resuspended, and transferred in the amount needed into a new cultivation bottle with fresh medium. Population doubling time of LoVo cell line was 39 h under the cultivation conditions used.
as §2, §3, §4

HUVEC = experiment: CellTiter-Glo luminescent cell viability assay (ATP quantification), HUVEC normal cells; assay type: cell-based, human; conditions: 72 h treatment
Experimental: as §1
Normal human endothelial cells from umbilical vein are adherent cells cultivated in plastic Petri dishes coated with collagen I. Into the cultivation medium (E-STIM™; BD Biosciences, cat. co. 355054) already containing 2% FBS (fetal bovine serum), hydrocortisone and heparin the following two further ingredients were added: epidermal growth factor (EGF, 5 μg) and mixture of factors facilitating growth of endothelial cells (ECGS, 100 mg). […] The cells were passaged after reaching 90% confluency by dissociation using 0.25% solution of trypsin/EDTA (1 ml; 3 min; 37° C.). After that 5 ml of complete cultivation medium E-STIM™ was added and the cells were centrifuged (180×g, 7 min), the pellet was resuspended, and transferred in the amount needed into a new Petri dish with fresh medium. The cells were used in experiments between the 3rd and the 8th passage after defreezing. Population doubling time of HUVEC cell line was 38 h under the cultivation conditions used.
as §2, §3, §4

NHDF-Ad = experiment: CellTiter-Glo luminescent cell viability assay (ATP quantification), NHDF-Ad normal cells; assay type: cell-based; conditions: normal human dermal fibroblasts, 72 h treatment
Description: as §1
Normal human dermal fibroblasts were cultivated without antibiotics in basal medium for fibroblasts (ATCC/LGC Standards, cat. no. PCS-201-030) with added “Fibroblast Growth Kit-Low serum” (ATCC/LGC Standards, cat. no. PCS-201-041) containing 2% FBS, L-glutamine, hydrocortisone, ascorbic acid, rh FGF beta, rh insulin. When 90% confluency was reached the fibroblasts were washed with sterile PBS (5 ml) and dissociated by addition of 0.25% solution of trypsin/EDTA (2 ml; 2 min; 37° C.). After that 5 ml of cultivation medium for fibroblasts was added and the cells were centrifuged (180×g, 7 min), the cell pellet was resuspended, and transferred in the amount needed into a new cultivation bottle with fresh medium. The same cell release procedure was applied when the cells were to be used in experiments. The cells were used in experiments between the 3rd and the 15th passage after defreeezing. Population doubling time of NHDF-Ad cell line was 33 h under the cultivation conditions used.
as §2, §3, §4

Hep G2 = experiment: CellTiter-Glo luminescent cell viability assay (ATP quantification), Hep G2; assay type: cell-based; conditions: Homo sapiens, HepG2; hepatocellular carcinoma cells, 72 h treatment, viable cells by ATP luminescence
Experimental: as §1
as §6, with “Hep G2” for “LoVo”, “from liver” for “from”, “hepatocellular” for “colorectal”, “M4528)” for “D8437)”, “28” for “39”
as §2
as §3, with “In short: microtiter well plate was left 30 min to reach the room temperature after it has been removed from the incubator. Then, into each well, 100 μl of the prepared detection agent was added. Next, the well plate was shaken for 2 min to complete the full lysis.” left out, “Austria). […]” for “Austria).”

IC50 (CCRF-CEM; Homo sapiens, CCRF-CEM): 11 to 50 µM
IC50 (MOLT-4; Homo sapiens, MOLT-4): 11 to 50 µM
IC50 (HeLa; Homo sapiens, HeLa): 11 to 50 µM
IC50 (HL-60; Homo sapiens, HL-60): 11 to 50 µM
IC50 (LoVo): 51 to 150 µM
SMILES: C(=C\c1cc[n+]2c(c1)-c1c(ccc3c1-c1c4ccccc4cc[n+]1CCC3)CCC2)/c1cc2c3c(c1)CCCN3CCC2 (racemic) [(rac)-25, (rac)-(E)-19-(2-(1,2,3,5,6,7-hexahydropyrido[3,2,1-ij]quinolin-9-yl)vinyl)-8,9,10,13,14,15-hexahydropyrido[1′″,2′″:1″,2″]azepino[4″,3″:5′,6′]benzo[1′,2′:3,4]azepino[2,1-a]isoquinoline-7,16-diium trifluoromethanesulfonate]
IC50 (HUVEC; HUVEC, normal human endothelial cells, numeric bound, values over 100 obtained by extrapolation of data measured at 0-100 μmol·l−1): > 150 µM
IC50 (NHDF-Ad; Fibroblast, numeric bound, values over 100 obtained by extrapolation of data measured at 0-100 μmol·l−1): > 150 µM

melting point: 318 to 322 °C
SMILES: CN(C)c1ccc(/C=C/c2cccc3[n+]2CCCc2ccc4c(c2-3)-c2cccc(/C=C/c3ccc(N(C)C)cc3)[n+]2CCC4)cc1 (racemic) (as salt: methanesulfonate) [(rac)-41, (rac)-4,15-bis((E)-4-(dimethylamino)styryl)-6,7,8,11,12,13-hexahydro-dipyrido[1,2-a:1′,2′-a′]benzo[2,1-c:3,4-c′]bisazepinediium trifluoromethanesulfonate]

IC50 (CCRF-CEM): 11 to 50 µM
IC50 (MOLT-4): 11 to 50 µM
IC50 (HeLa): 11 to 50 µM
IC50 (HL-60): 11 to 50 µM
SMILES: COc1ccc2cc(/C=C/c3cc[n+]4c(c3)-c3c(c(C)c(C)c5c3-c3c6ccccc6cc[n+]3CC5)CC4)ccc2c1 [(P)-7, (P)-(E)-13-(2-(6-methoxynaphthalene-2-yl)vinyl)-6,7-dimethyl-4,5,8,9-tetrahydroiso-quinolino[1,2-a]pyrido[1,2-k][2,9]phenanthroline-3,10-diium trifluoromethanesulfonate]
IC50 (HUVEC; normal human endothelial cells from umbilical vein, viable cells by ATP luminescence, class symbols): 51 to 150 µM
IC50 (NHDF-Ad; viable cells by ATP luminescence, class symbols): 51 to 150 µM

IC50 (CCRF-CEM; Homo sapiens, CCRF-CEM): 11 to 50 µM
IC50 (MOLT-4; Homo sapiens, MOLT-4): 51 to 150 µM
IC50 (HeLa; Homo sapiens, HeLa): 11 to 50 µM
IC50 (LoVo): 51 to 150 µM
SMILES: Cc1c(C)c2c(c3c1CC[n+]1ccc4ccccc4c1-3)-c1cccc(/C=C/c3cc4c5c(c3)CCCN5CCC4)[n+]1CC2 (racemic) [(rac)-12, (rac)-(E)-11-(2-(1,2,3,5,6,7-hexahydropyrido[3,2,1-ij]yl)vinyl)-6,7-dimethyl-4,5,8,9-tetrahydroisoquinolino[1,2-a]pyrido[1,2-k][2,9]phenanthroline-3,10-diium trifluoromethanesulfonate]
IC50 (Hep G2): 11 to 50 µM
IC50 (HUVEC; HUVEC, normal human endothelial cells from umbilical vein, viable cells by ATP luminescence, class symbols): 51 to 150 µM
IC50 (NHDF-Ad; Fibroblast, viable cells by ATP luminescence, class symbols): 51 to 150 µM
